Laboratory results reported in patent US8212016B2, “NPC1L1 orthologues” (Schering Corporation, priority 2006, dated 2012).
Like-named read-outs stand apart in the source and are kept apart here.

Assays:
[1] = target: T1, human NPC1L1 (Homo sapiens, UniProt Q9UHC9, T1073A); conditions: human NPC1L1, Garcia-Calvo et al. 2005; read-out: Kd, previously reported; cited from earlier work
T1 construct: expressed in transfected cells
T1 sequence (Q9UHC9 22-1332 isoform Q9UHC9-2 T1046A): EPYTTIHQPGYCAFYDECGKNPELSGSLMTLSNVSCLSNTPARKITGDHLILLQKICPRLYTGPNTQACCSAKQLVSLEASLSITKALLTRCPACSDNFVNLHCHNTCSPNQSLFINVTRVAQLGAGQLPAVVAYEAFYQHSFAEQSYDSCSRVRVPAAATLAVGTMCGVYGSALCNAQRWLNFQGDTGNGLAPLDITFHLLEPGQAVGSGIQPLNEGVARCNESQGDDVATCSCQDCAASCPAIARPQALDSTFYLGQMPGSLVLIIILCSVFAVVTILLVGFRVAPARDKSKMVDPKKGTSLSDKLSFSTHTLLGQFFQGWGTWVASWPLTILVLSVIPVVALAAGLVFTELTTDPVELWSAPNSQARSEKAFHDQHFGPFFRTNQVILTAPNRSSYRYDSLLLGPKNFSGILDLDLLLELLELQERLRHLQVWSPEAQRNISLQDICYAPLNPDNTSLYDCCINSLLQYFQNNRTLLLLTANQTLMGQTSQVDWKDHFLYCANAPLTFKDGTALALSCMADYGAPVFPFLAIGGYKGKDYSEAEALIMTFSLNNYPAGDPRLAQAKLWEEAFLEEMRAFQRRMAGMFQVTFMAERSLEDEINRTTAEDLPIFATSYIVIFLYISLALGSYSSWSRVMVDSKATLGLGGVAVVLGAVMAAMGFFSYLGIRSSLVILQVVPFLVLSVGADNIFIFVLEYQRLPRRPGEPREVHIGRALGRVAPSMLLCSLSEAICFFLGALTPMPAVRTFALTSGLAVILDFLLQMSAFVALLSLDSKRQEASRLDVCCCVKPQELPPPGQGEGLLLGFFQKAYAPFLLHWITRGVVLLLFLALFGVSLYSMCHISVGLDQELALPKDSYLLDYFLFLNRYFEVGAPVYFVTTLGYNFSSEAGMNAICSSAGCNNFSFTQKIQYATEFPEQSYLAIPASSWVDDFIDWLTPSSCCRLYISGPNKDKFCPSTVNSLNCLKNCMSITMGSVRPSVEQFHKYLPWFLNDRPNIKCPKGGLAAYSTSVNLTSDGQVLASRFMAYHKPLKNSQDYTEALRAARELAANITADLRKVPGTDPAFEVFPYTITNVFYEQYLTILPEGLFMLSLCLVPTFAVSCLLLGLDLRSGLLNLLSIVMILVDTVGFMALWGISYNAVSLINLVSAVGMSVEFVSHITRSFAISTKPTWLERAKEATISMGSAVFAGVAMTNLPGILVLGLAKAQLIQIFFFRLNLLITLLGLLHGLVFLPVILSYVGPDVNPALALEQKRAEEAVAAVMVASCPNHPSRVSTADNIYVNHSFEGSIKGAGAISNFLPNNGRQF

[2] = target: T1, human NPC1L1; assay: Radioligand binding of [3H]-glucuronidated ezetimibe (compound 4) to cell membranes
Description: Cell Culture and Membrane Preparation. […] Cells were maintained in DMEM supplemented with 10% FBS, 100 U/ml pen/strep, and 500 μg/ml geneticin at 37° C., 5% CO2. All cell culture reagents were obtained from Invitrogen Life Technologies, (Carlsbad, Calif.). Cell membranes were prepared by lysing cells in 5 mM HEPES with protease inhibitors (Complete™ Protease Inhibitor Cocktail Tablets; Roche Diagnostics Corp., Indianapolis Ind.) for 15 min at 4° C. A membrane pellet was obtained by centrifuging the cell lysates at 12,000×g for 25 min. […] Radioligand. […] Natl. Acad. Sci. […] Reactions were performed in binding buffer (5 mM HEPES, 5.5 mM glucose, 117 mM NaCl and 5.4 mM KCl, pH 7.4). Cell membranes (50 μg in 20 μl) were added to each well. […] Binding reactions were incubated for 2 hours at 37° C. Samples were transferred to Unifilter-96 GF/C plates (Perkin Elmer, Wellesley Mass.) and filtered using a Brandel harvester (Gaithersburg Md.). […] Liquid scintillant (50 μl; Microscint-20, Perkin Elmer, Wellesley Mass.) was added and the bound radioactivity was measured using a microplate scintillation counter.

[3] = target: T2, mouse NPC1L1 (Mus musculus, UniProt Q6T3U4, N476K); assay: Fluorescence NPC1L1 binding assay, HEK-293 cells, fluorescent compound 2 as ligand
T2 construct: expressed in transfected cells
Description: Cell Culture and Membrane Preparation. Each plasmid pCR3.1 harboring NPC1L1 was prepared using standard molecular biology protocols. Stable cell lines expressing human, rhesus monkey, mouse, rat, hamster, canine or rabbit NPC1L1 were generated using Lipofectamine 2000 transfection reagent in HEK-293 cells according to the manufacturer's protocol. Cells were maintained in DMEM supplemented with 10% FBS, 100 U/ml pen/strep, and 500 μg/ml geneticin at 37° C., 5% CO2. All cell culture reagents were obtained from Invitrogen Life Technologies, (Carlsbad, Calif.). Cell membranes were prepared by lysing cells in 5 mM HEPES with protease inhibitors (Complete™ Protease Inhibitor Cocktail Tablets; Roche Diagnostics Corp., Indianapolis Ind.) for 15 min at 4° C. A membrane pellet was obtained by centrifuging the cell lysates at 12,000×g for 25 min. The membranes were resuspended in 5 mM HEPES with protease inhibitors and triturated with a 21G needle.
Fluorescence. Cells were plated into 384-well black/clear plates (BD Biosciences, Bedford Mass.) for binding experiments the following day. The media was aspirated. […] Media (20 μl) containing the indicated concentration of compound was then added to the wells. […] The binding reaction was allowed to proceed for 4 hours at 37° C. Subsequently the media was aspirated and the cells washed once with PBS.
In an effort to show binding to mouse NPC1L1, several related ezetimibe analogs were examined as possible alternatives to fluorescently-labeled (BODIPY) ezetimibe glucuronide (compound 1) in the binding assay. Compound 2, which is a fluorescently labeled synthetic precursor for fluorescently-labeled (BODIPY) ezetimibe glucuronide (compound 1; Burnett et al., Bioorganic and Medicinal Chemistry Letters 12:315-318 (2002)), was identified as a viable option for detection of mouse NPC1L1 binding. Compound 2 contains a methyl ester substitution for the carboxylic acid on the glucuronide portion of the molecule (compound structures shown in FIG. 4A).

Kd [2]: 206 nM
Ki ([3]; Mouse NPC1L1, competition with compound 2, read-out: Ki): 9000 nM
Ki ([3]; Table 3, Mouse, read-out: Ki Mouse NPC1L1): 5400 nM
SMILES: O=C(O)[C@H]1O[C@@H](Oc2ccc([C@@H]3[C@@H](CC[C@H](O)c4ccc(F)cc4)C(=O)N3c3ccc(F)cc3)cc2)[C@H](O)[C@@H](O)[C@@H]1O [compound 4, glucuronidated ezetimibe]
Kd [1]: 220 nM
